Test results published in ChEMBL document CHEMBL1201862, “PubChem BioAssay data set” (2004).
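All cell lines were grown in 96-well plates and treated with compound for 48 hours. GI50 marks 50% less growth.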 Calls of active or inactive are those of the source. Cut-off read from the data, not from the text of the source: active = GI50 up to about 1.1 µM and inactive = higher.

Key:
Assay in all cases: inhibition of tumour cell growth, NCI panel, 48 h
[1] = tested on: 786-0
[2] = tested on: A498
[3] = tested on: ACHN
[4] = tested on: CAKI-1
[5] = tested on: COLO 205
[6] = tested on: DU-145
[7] = tested on: EKVX
[8] = tested on: HCC 2998
[9] = tested on: HCT-15
[10] = tested on: HOP-62
[11] = tested on: HOP-92
[12] = tested on: HT-29
[13] = tested on: Hs-578T
[14] = tested on: IGROV-1
[15] = tested on: KM12
[16] = tested on: LOX IMVI
[17] = tested on: M14
[18] = tested on: MCF7
[19] = tested on: MDA-MB-231
[20] = tested on: MDA-MB-435
[21] = tested on: MDA-N
[22] = tested on: MOLT-4
[23] = tested on: Malme-3M
[24] = tested on: NCI-H226
[25] = tested on: NCI-H23
[26] = tested on: NCI-H460
[27] = tested on: NCI-H522
[28] = tested on: NCI/ADR-RES
[29] = tested on: OVCAR-3
[30] = tested on: OVCAR-4
[31] = tested on: OVCAR-5
[32] = tested on: OVCAR-8
[33] = tested on: PC-3
[34] = tested on: RPMI-8226
[35] = tested on: RXF 393
[36] = tested on: SF-268
[37] = tested on: SF-295
[38] = tested on: SF-539
[39] = tested on: SK-MEL-28
[40] = tested on: SK-MEL-2
[41] = tested on: SK-MEL-5
[42] = tested on: SK-OV-3
[43] = tested on: SN12C
[44] = tested on: SNB-75
[45] = tested on: SR
[46] = tested on: SW-620
[47] = tested on: T47D
[48] = tested on: TK-10
[49] = tested on: U-251
[50] = tested on: UACC-257
[51] = tested on: UO-31

SMILES: COc1ccc(/N=N/c2ccc3oc(=O)c(C(=O)Nc4ccccc4C)cc3c2)cc1
- GI50 [1]: > 10 µM (inactive)
- GI50 [2]: > 10 µM (inactive)
- GI50 [3]: 8.3 µM (inactive)
- GI50 [4]: > 10 µM (inactive)
- GI50 [5]: > 10 µM (inactive)
- GI50 [6]: > 10 µM (inactive)
- GI50 [7]: > 10 µM (inactive)
- GI50 [8]: > 10 µM (inactive)
- GI50 [9]: > 10 µM
- GI50 [10]: > 10 µM (inactive)
- GI50 [11]: > 10 µM (inactive)
- GI50 [12]: > 10 µM (inactive)
- GI50 [13]: > 10 µM (inactive)
- GI50 [14]: > 10 µM (inactive)
- GI50 [15]: > 10 µM (inactive)
- GI50 [16]: > 10 µM (inactive)
- GI50 [17]: > 10 µM (inactive)
- GI50 [18]: > 10 µM (inactive)
- GI50 [19]: > 10 µM (inactive)
- GI50 [20]: > 10 µM (inactive)
- GI50 [21]: > 10 µM (inactive)
- GI50 [22]: > 10 µM (inactive)
- GI50 [23]: > 10 µM (inactive)
- GI50 [24]: > 10 µM (inactive)
- GI50 [25]: > 10 µM (inactive)
- GI50 [26]: > 10 µM (inactive)
- GI50 [27]: > 10 µM (inactive)
- GI50 [28]: > 10 µM (inactive)
- GI50 [29]: > 10 µM (inactive)
- GI50 [30]: > 10 µM (inactive)
- GI50 [31]: > 10 µM (inactive)
- GI50 [32]: > 10 µM (inactive)
- GI50 [33]: > 10 µM (inactive)
- GI50 [34]: > 10 µM (inactive)
- GI50 [35]: > 10 µM (inactive)
- GI50 [36]: > 10 µM (inactive)
- GI50 [37]: > 10 µM (inactive)
- GI50 [38]: > 10 µM (inactive)
- GI50 [39]: > 10 µM (inactive)
- GI50 [40]: > 10 µM (inactive)
- GI50 [41]: > 10 µM (inactive)
- GI50 [42]: > 10 µM (inactive)
- GI50 [43]: > 10 µM (inactive)
- GI50 [44]: 4.69 µM (inactive)
- GI50 [45]: > 10 µM (inactive)
- GI50 [46]: > 10 µM (inactive)
- GI50 [47]: > 10 µM (inactive)
- GI50 [48]: > 10 µM (inactive)
- GI50 [49]: > 10 µM (inactive)
- GI50 [50]: > 10 µM (inactive)
- GI50 [51]: > 10 µM (inactive)
